Results taken from the NIST ThermoML archive (doi:10.1021/je201140q).

Legend:
[1] = for surface tension liquid-gas: 303.15 K, Maximal bubble pressure; for vapor or sublimation pressure / Normal boiling temperature: Ebulliometric method (Recirculating still)
[2] = refractive index (Na D-line) (dimensionless); settings: 298.15 K; 101.33 kPa; Liquid; Standard Abbe refractometry
[3] = xn = mol fraction of the nth substance listed; settings: for mass density: 298.15 K, 101.3 kPa, Liquid, Vibrating tube method; for surface tension liquid-gas: 303.15 K, Maximal bubble pressure

CCO [ethanol]
Settings	refractive index	surface tension liquid-gas [mN/m]
[1]	–	21.7
[2]	1.36068	–

[1], Liquid
Settings	vapor or sublimation pressure [kPa]
334.57 K	50
344.02 K	75
349.56 K	94

Settings	Normal boiling temperature [°C]
[1], Liquid	78.30

CCO [ethanol] + C1CCOCC1
[3], x1 = 1
Settings	mass density [kg/m3]	surface tension liquid-gas [mN/m]
–	785.11	21.7

C1CCOCC1 [tetrahydropyran]
Settings	mass density [kg/m3]
[1], 298.15 K, 101.3 kPa, Liquid, Vibrating tube method	879.03

Settings	refractive index	surface tension liquid-gas [mN/m]
[1]	–	27.1
[2]	1.42	–

[1], Liquid
Settings	vapor or sublimation pressure [kPa]
312.59 K	18.01
319.62 K	24.01
325.36 K	30.01
331.7 K	38.01
336.4 K	45.01
339.33 K	50
339.98 K	51.01
344.26 K	59.01
347.64 K	66.01
350.74 K	73.01
351.53 K	75
353.61 K	80.01
356.29 K	87.01
358.81 K	94.01
358.85 K	94
361.55 K	102.11

Settings	Normal boiling temperature [°C]
[1], Liquid	88.21

C1CCOCC1 [tetrahydropyran] + CCO
[3]
Settings	mass density [kg/m3]	surface tension liquid-gas [mN/m]
x2 = 0	879.03	27.1
x2 = 0.03	877.14	–
x2 = 0.068	–	26.91
x2 = 0.115	871.86	–
x2 = 0.122	–	26.76
x2 = 0.193	866.85	–
x2 = 0.223	–	26.5
x2 = 0.299	859.54	–
x2 = 0.323	–	25.98
x2 = 0.42	–	25.34
x2 = 0.426	849.89	–
x2 = 0.496	844.01	–
x2 = 0.52	–	24.9
x2 = 0.599	834.65	–
x2 = 0.604	–	24.35
x2 = 0.622	–	24.24
x2 = 0.657	–	24.07
x2 = 0.707	–	23.81
x2 = 0.716	822.74	–
x2 = 0.722	–	23.64
x2 = 0.799	813.13	–
x2 = 0.821	–	23.01
x2 = 0.91	798.6	–
x2 = 0.918	–	22.42
x2 = 0.959	791.41	–
x2 = 0.963	–	22
